The text below walks through data of ChEMBL document CHEMBL5107987, “New naphtho/thienobenzo-triazoles with interconnected anti-inflammatory and cholinesterase inhibitory activity” (Eur J Med Chem, 2022).

Data set [1] in a line: Inhibition of TNF-alpha production in LPS-stimulated human PBMC measured after 24 hrs by ELISA. It counts as functional, cell-based.
A short description of data set [2]: Cytotoxicity against human PBMC assessed as effect on cell viability measured by Cell Titer Glo assay. The class given is toxicity, cell-based.
Data set [3] addresses Acetylcholinesterase (Electrophorus electricus) (UniProt O42275). Description: Inhibition of electric eel AChE using acetylthiocholine iodide as substrate pre-incubated for 5 mins followed by substrate addition at 500 uM and measured after 6 mins by Ellman's method relative to control.
The target in data set [4] is Cholinesterase (Equus caballus) (UniProt P81908). Description: Inhibition of equine serum BuChE using S-butyrylthiocholine iodide as substrate pre-incubated for 5 mins followed by substrate addition at 500 uM and measured after 6 mins by Ellman's method relative to control.
Sequence of Cholinesterase (Equus caballus) (P81908 whole entry): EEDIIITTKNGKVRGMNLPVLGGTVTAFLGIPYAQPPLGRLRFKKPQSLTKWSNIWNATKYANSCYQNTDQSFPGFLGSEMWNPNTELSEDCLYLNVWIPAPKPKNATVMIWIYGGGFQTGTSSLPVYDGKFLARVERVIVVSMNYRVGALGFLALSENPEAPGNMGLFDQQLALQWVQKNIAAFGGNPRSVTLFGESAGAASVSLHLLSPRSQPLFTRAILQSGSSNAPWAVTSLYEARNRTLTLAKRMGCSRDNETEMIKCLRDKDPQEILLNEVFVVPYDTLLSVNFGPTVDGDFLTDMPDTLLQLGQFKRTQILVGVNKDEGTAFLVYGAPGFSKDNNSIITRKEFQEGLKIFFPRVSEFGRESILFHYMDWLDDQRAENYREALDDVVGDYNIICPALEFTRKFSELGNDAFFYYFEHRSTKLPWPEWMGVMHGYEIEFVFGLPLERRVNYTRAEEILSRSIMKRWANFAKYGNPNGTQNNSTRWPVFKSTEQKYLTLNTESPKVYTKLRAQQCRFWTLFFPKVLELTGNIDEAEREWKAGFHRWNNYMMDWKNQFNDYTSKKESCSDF
Data set [5] addresses Acetylcholinesterase (Electrophorus electricus, UniProt O42275). Description: Inhibition of electric eel AChE using acetylthiocholine iodide as substrate pre-incubated for 5 mins followed by substrate addition and measured after 6 mins by Ellman's method.
The target of data set [6] is Cholinesterase (Equus caballus, UniProt P81908). As to the kind of experiment: Inhibition of equine serum BuChE using S-butyrylthiocholine iodide as substrate pre-incubated for 5 mins followed by substrate addition and measured after 6 mins by Ellman's method.
Sequence of Cholinesterase (P81908 whole entry): as above
A short description of data set [7]: Inhibition of TNF-alpha production in LPS-stimulated human PBMC measured after 24 hrs by ELISA relative to control. The class given is functional.
Data set [8] deals with Acetylcholinesterase (Electrophorus electricus) (UniProt O42275). As to the kind of experiment: Inhibition of electric eel AChE using acetylthiocholine iodide as substrate pre-incubated for 5 mins followed by substrate addition at 1000 uM and measured after 6 mins by Ellman's method relative to control.
Sequence of Acetylcholinesterase (Electrophorus electricus) (O42275 24-633 limits assumed): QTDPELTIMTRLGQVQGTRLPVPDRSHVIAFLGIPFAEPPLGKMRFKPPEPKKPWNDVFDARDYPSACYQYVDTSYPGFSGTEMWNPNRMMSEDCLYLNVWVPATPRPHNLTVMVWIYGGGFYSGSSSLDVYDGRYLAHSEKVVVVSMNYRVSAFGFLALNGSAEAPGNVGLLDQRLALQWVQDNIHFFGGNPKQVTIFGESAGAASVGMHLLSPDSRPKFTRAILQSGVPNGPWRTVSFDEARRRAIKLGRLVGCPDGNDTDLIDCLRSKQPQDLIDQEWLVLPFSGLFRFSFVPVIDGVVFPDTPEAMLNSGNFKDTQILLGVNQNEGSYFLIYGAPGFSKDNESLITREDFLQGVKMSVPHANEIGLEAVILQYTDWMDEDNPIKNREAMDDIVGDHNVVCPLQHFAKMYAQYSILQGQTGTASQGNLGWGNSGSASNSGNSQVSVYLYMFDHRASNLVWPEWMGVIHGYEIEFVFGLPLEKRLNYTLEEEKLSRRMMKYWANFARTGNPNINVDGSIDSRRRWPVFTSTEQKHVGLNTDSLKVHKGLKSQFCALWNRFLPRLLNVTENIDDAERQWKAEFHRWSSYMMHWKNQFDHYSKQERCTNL
The target of data set [9] is Cholinesterase (Equus caballus) (UniProt P81908). As to the kind of experiment: Inhibition of equine serum BuChE using S-butyrylthiocholine iodide as substrate pre-incubated for 5 mins followed by substrate addition at 200 uM and measured after 6 mins by Ellman's method relative to control.
Data set [10] has the same target. As to the kind of experiment: Inhibition of equine serum BuChE using S-butyrylthiocholine iodide as substrate pre-incubated for 5 mins followed by substrate addition at 50 uM and measured after 6 mins by Ellman's method relative to control.
Data set [11] has the same target. As to the kind of experiment: Inhibition of equine serum BuChE using S-butyrylthiocholine iodide as substrate pre-incubated for 5 mins followed by substrate addition at 100 uM and measured after 6 mins by Ellman's method relative to control.
Data set [12] has as its target Acetylcholinesterase (Electrophorus electricus) (UniProt O42275). As to the kind of experiment: Inhibition of electric eel AChE using acetylthiocholine iodide as substrate pre-incubated for 5 mins followed by substrate addition at 100 uM and measured after 6 mins by Ellman's method relative to control.
In data set [13] the target is Cholinesterase (Equus caballus) (UniProt P81908). As to the kind of experiment: Inhibition of equine serum BuChE using S-butyrylthiocholine iodide as substrate pre-incubated for 5 mins followed by substrate addition at 250 uM and measured after 6 mins by Ellman's method relative to control.
For data set [14] the target is unchanged. Description: Inhibition of equine serum BuChE using S-butyrylthiocholine iodide as substrate pre-incubated for 5 mins followed by substrate addition at 800 uM and measured after 6 mins by Ellman's method relative to control.
Data set [15] concerns the target Acetylcholinesterase (Electrophorus electricus) (UniProt O42275). As to the kind of experiment: Inhibition of electric eel AChE using acetylthiocholine iodide as substrate pre-incubated for 5 mins followed by substrate addition at 800 uM and measured after 6 mins by Ellman's method relative to control.

Sequence of Acetylcholinesterase (O42275 whole entry): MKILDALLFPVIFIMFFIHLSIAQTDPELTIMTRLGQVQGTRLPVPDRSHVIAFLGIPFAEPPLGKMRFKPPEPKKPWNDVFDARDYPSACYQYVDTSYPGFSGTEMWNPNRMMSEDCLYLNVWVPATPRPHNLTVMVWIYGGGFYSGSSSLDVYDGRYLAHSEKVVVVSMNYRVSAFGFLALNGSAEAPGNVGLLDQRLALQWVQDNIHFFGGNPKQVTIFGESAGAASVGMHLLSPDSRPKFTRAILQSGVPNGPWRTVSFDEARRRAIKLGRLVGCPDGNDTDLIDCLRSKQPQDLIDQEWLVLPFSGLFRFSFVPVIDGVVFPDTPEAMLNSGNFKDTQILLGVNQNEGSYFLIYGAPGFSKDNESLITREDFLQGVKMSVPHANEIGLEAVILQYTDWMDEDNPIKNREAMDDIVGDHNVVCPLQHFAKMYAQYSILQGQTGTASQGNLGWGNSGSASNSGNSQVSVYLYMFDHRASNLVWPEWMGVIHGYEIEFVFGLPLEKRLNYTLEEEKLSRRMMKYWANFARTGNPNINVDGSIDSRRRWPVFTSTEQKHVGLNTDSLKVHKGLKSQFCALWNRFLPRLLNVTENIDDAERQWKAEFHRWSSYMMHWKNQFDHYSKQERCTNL

For the compound `CC(c1ccccc1)n1cc(/C=C\c2cccs2)nn1` (stereo not drawn), in [1], the IC50 was > 33 µM. The Activity entry in data set [2] is reported as “Non-Toxic”.

For `C=CCn1cc(/C=C/c2cccs2)nn1`, the IC50 in data set [1] is > 33 µM. Moreover, in data set [2], the Activity result is recorded as “Non-Toxic”.

As for `COc1ccc(Cn2cc(/C=C\c3ccccc3C#N)nn2)cc1`, the IC50 in data set [1] was > 33 µM. The Activity result in [2] was “Non-Toxic”.

With `C(=C/c1cccs1)/c1cn(CCc2cc3ccccc3[nH]2)nn1`, the IC50 was > 33 µM in data set [1], 596 µM in data set [5] and 234 µM in data set [6]. For the same compound, the Activity entry in [2] is “Non-Toxic”. The inhibition in data set [3] was 67.4%; in [4], 59.5%.

Take `CCCn1nnc2ccc3sccc3c21`: the “inhibition (INH)” value in [7] is listed as <50%. In addition, the figures for the inhibition in [8] and in data set [9] were 56.2% and 91.7%, respectively.

In [1], `CC(C)n1nnc2ccc3ccc(Cl)cc3c21` gave a half-inhibitory concentration (IC50) of 22.2 µM. The Activity entry in [2] is “Non-Toxic”.

With `COc1ccc(Cn2cc(/C=C/c3ccccc3C#N)nn2)cc1`, in [1], the IC50 is > 33 µM. For the same compound, the Activity entry in data set [2] is “Non-Toxic”.

For the compound `CCCn1cc(/C=C\c2cccs2)nn1`, the IC50 in data set [1] was > 33 µM; in data set [6], 95.6 µM. For the same compound, the inhibition in data set [8] is 21.9%; in data set [9], 66.1%. Further, in data set [2], the Activity result is “Non-Toxic”.

In data set [1], `COc1ccc2ccc3nnn(CCCCO)c3c2c1` came in with a half-inhibitory concentration (IC50) of 7.9 µM. For the same compound, the Activity entry in data set [2] is “Non-Toxic”.

With `C=CCn1nnc2ccc3sccc3c21`, the half-inhibitory concentration (IC50) in data set [1] came to 27.7 µM; in data set [5] it was 56.2 µM; in data set [6], 3.8 µM. Further, the Activity result in [2] is given as “Non-Toxic”. Also, the values for the inhibition in data set [3] and in [10] were 76.9% and 80%, respectively.

`C=CCn1cc(/C=C\c2cccs2)nn1`: the IC50 in data set [1] was > 33 µM. Besides, the Activity result in data set [2] is “Non-Toxic”.

Turning to `c1ccc2[nH]c(CCn3nnc4ccc5sccc5c43)cc2c1`, the “inhibition (INH)” value in data set [7] is recorded as <50%. Moreover, in data set [2], the Activity result is “Non-Toxic”.

In the case of `O=[N+]([O-])c1ccc(-n2cc(/C=C\c3cccs3)nn2)cc1`, the inhibition amounted to 12.3% in data set [11] and 34.1% in [12].

As to `CC(C)n1nnc2ccc3ccccc3c21`, the “inhibition (INH)” value in data set [7] is recorded as <50%.

`CCCn1cc(/C=C/c2cccs2)nn1`: the IC50 in [1] is > 33 µM. Besides, the Activity result in data set [2] is given as “Non-Toxic”. For the same compound, the figures for the inhibition in data set [13] and in data set [3] were 79.2% and 36.9%, respectively.

As to `COc1ccc(Cn2nnc3ccc4cccc(C#N)c4c32)cc1`, the “inhibition (INH)” value in [7] is recorded as <50%.

In data set [1], `C[C@@H]1C[C@H]2[C@@H]3CCC4=CC(=O)C=C[C@]4(C)[C@@]3(F)[C@@H](O)C[C@]2(C)[C@@]1(O)C(=O)CO` [DEXAMETHASONE] had a half-maximal inhibitory concentration (IC50) of 0.0036 µM.

Regarding `COc1ccc(Cn2nnc3ccc4ccc(OC)cc4c32)cc1`, the concentration for half-maximal inhibition (IC50) in data set [1] stood at 2.2 µM. Moreover, the Activity result in [2] is on record as “Non-Toxic”.

Take `O=[N+]([O-])c1ccc(-n2nnc3ccc4sccc4c32)cc1`: in data set [7], the “inhibition (INH)” value is <50%. Also, the results for the inhibition in data set [3] and in data set [4] were 43.3% and 53.4%, respectively. The compound further registered a 50% inhibitory concentration (IC50) in data set [6] of 449 µM.

For the compound `OCCCCn1cc(/C=C\c2cccs2)nn1`, the inhibition in [14] came out at 48.7%; in [15] it was 45.2%.
